Source: patent US10538797B2, “Method for the biotechnological production of flavone glycoside dihydrochalcones” (priority 2014, dated 2020)

Tested on: E. coli BL21 transformed with pET28_CHI_ΔLid and pET22_ERED
Assay: Whole-cell biocatalysis of naringin
Format: cell-based
Conditions: 150 μM naringin, cell suspension OD=150 in 20 mM TRIS-HCl pH 7.5, gassed with nitrogen, 23° C., 900 rpm, 22 h
Procedure: After successful cloning the plasmid pET28_CHI_ΔLid (FIG. 1) together with the plasmid pET22_ERED was transformed into E. coli BL21.
200 mL LBkan, amp were inoculated with 1% (v/v) of an overnight culture and grown at 37° C. to an OD≥1. The induction of the expression was then carried out with 0.1 mM IPTG. The expression of the protein was carried out for 21 h at 20° C.
After the harvesting of the cells these were normalised with 20 mM TRIS-HCl pH 7.5 to an OD=150. For the implementation of the biocatalyses in each case 490 μL of the cell suspension was added with 10 μL naringin solution (stock solution: 7.5 mM naringin dissolved in 1,2-propylene glycol; final concentration: 150 μM) to a 2 mL Eppendorf reaction vessel and gassed with nitrogen. The biocatalyses were carried out at 23° C., 900 rpm and 22 h. The extraction of the substrates was carried out twice with ethyl acetate.

Compound: C[C@@H]1O[C@@H](O[C@H]2[C@H](Oc3cc(O)c4c(c3)O[C@H](c3ccc(O)cc3)CC4=O)O[C@H](CO)[C@@H](O)[C@@H]2O)[C@H](O)[C@H](O)[C@H]1O [naringin]
- conversion of the naringin: 65%
